Data: patent publication US20170328922A1, “METHODS AND PRODUCTS FOR LABELLING LIPIDS” (UNIVERSITY OF SOUTH AUSTRALIA, priority 2014, published 2017)

Key:
[1] = Rhenium molecular probe-lipid overlay (dot blot); type: binding; design: key to interaction with Cholestrol (dot blot): ✓ indicates a positive interaction; x indicates no interaction; conditions: for interaction with Cholestrol (dot blot): 10 μM probe, 50 μM lipid on PVDF membrane; for affinity towards cholesterol, in words: FIG. 7 / FIG. 8
Protocol: (§1) The experimental protocol probe-lipid overlay was as follows: 50 μM of each lipids was loaded on to PVDF membranes (Perkin Elmer, USA), which were then incubated with molecular probes. PhenCyano and PhenPyridyl were assessed against eleven lipids including; sphingomyelin (Cat # S0756, Sigma Aldrich, USA), sphingosine (Cat # S7049; Sigma Aldrich, USA), L-phosphatidylethanolamine (Cat # P7943, Sigma Aldrich, USA), monosialodanglioside (GM1; Cat # G7641, Sigma Aldrich, USA), oleoly-L-?-lysophosphatidic acid (Cat # L7260, Sigma Aldrich, USA), palmitic acid (Cat # P5917, Sigma Aldrich, USA), sphingomyelin (Cat # S0756, Sigma Aldrich, USA), sphingosine (Cat # S7049; Sigma Aldrich, USA), L-?-phosphatidylethanolamine (Cat # P7943, Sigma Aldrich, USA), monosialodanglioside (GM1; Cat # G7641, Sigma Aldrich, USA), progesterone (Cat #102722, MP Biomedical, USA), ceramide (Cat # C2137; Sigma Aldrich, USA), triacylglycerol mix C2-C10 (Cat #17810, Sigma Aldrich, USA) and cholesteryl acetate (Cat #151114; Sigma Aldrich, USA).
(§2) All other molecular probes were assessed against a panel of six lipids including; sphingomyelin (Cat # S0756, Sigma Aldrich, USA), sphingosine (Cat # S7049; Sigma Aldrich, USA), L-?-phosphatidylethanolamine (Cat # P7943, Sigma Aldrich, USA), monosialodanglioside (GM1; Cat # G7641, Sigma Aldrich, USA), sphingomyelin (Cat # S0756, Sigma Aldrich, USA), sphingosine (Cat # S7049; Sigma Aldrich, USA), L-?-phosphatidylethanolamine (Cat # P7943, Sigma Aldrich, USA), monosialodanglioside (GM1; Cat # G7641, Sigma Aldrich, USA) and triacylglycerol mix C2-C10 (Cat #17810, Sigma Aldrich, USA).
(§3) Lipids were dissolved in ethanol, methanol or isopropanol for loading depending on solubility. Following lipid loading, membranes were left to dry for 20-30 minutes, then they were washed for 10 minutes in cold 10% ethanol, before they were incubated with 10 μM solution of each Rhenium molecular probe in cold 10% ethanol for one hour. Membranes were than washed four times for 10 minutes in cold 10% ethanol prior to imaging. Imaging was performed on an Image Quant Las 4000 (GE, Sweden) luminescent image analyser, with the Rhenium molecular probe being detected by excitation at 460 nm using an epi-blue light source, and detected using an 575 nm ethidium bromide filter.

[2] = Rhenium molecular probe-lipid overlay (dot blot); type: binding; design: key to interaction with Triglycerides (dot blot): ✓ indicates a positive interaction; x indicates no interaction; conditions: for interaction with Triglycerides (dot blot): 10 μM probe, 50 μM lipid on PVDF membrane; for interaction with triglycerides, in words: FIG. 7 / FIG. 8
Protocol: as §1, §2, §3

[3] = Rhenium molecular probe-lipid overlay (dot blot); type: binding; design: key to interaction with GM1 (dot blot): ✓ indicates a positive interaction; x indicates no interaction; conditions: for interaction with GM1 (dot blot): 10 μM probe, 50 μM lipid on PVDF membrane; for affinity towards monosialotetrahexosylganglioside (GM1), in words: FIG. 7 / FIG. 8
Protocol: as §1, §2, §3

[4] = Rhenium molecular probe-lipid overlay (dot blot); type: binding; design: key to interaction with PE (dot blot): ✓ indicates a positive interaction; x indicates no interaction; conditions: for interaction with PE (dot blot): 10 μM probe, 50 μM lipid on PVDF membrane; for affinity towards phosphatidylethanolamine (PE), in words: FIG. 7 / FIG. 8
Protocol: as §1, §2, §3

[5] = Rhenium molecular probe-lipid overlay (dot blot); type: binding; design: key to interaction with Sphingosine (dot blot): ✓ indicates a positive interaction; x indicates no interaction; conditions: for interaction with Sphingosine (dot blot): 10 μM probe, 50 μM lipid on PVDF membrane; for affinity towards sphingosine, in words: FIG. 7 / FIG. 8
Protocol: as §1, §2, §3

[6] = Rhenium molecular probe-lipid overlay (dot blot); type: binding; design: key to interaction with Sphingomyline (dot blot): ✓ indicates a positive interaction; x indicates no interaction; conditions: for interaction with Sphingomyline (dot blot): 10 μM probe, 50 μM lipid on PVDF membrane; for affinity towards sphingomyelin, in words: FIG. 7 / FIG. 8
Protocol: as §1, §2, §3

[7] = test system: Drosophila fat body tissue; assay: Live staining and confocal imaging of explanted fat body tissue; type: cell-based; conditions: fixed fat body, nutrient deprivation/starvation conditions
Protocol: All stocks were maintained in standard medium at 25° C. The yeast GAL4-UAS system was used for targeted gene expression (Brand and Perrimon, 1993). Fat-body specific expression of transgenes from the UAS were driven by CG-GAL4 (Asha et al., 2003). Transgenic UAS-Atg9RNAi stocks (#34901) and UAS-TorTED stocks (#7013) were obtained from the Bloomington Drosophila Stock Centre (Indiana University, IN, USA). Atg8aGFP was driven by an endogenous promoter (Kelso et al., 2004).
Bromophenol-blue was added to the fly media and used to define different developmental time points. […] Newly formed white pupae (0 h PF), were isolated onto moist filter paper and incubated at 25° C. for either two hours (+2 h PF) or four hours (+4 h PF).
Third instar larvae at −8 h PF were removed from standard media (normally feeding at this developmental stage) and placed on filter paper either soaked in 5% (w/v) sucrose (for amino acid deprivation), or 5% (w/v) tryptone pancreatic digest of casein (BD Bioscience USA; for carbohydrate deprivation), or soaked in water (for complete starvation). Larvae were incubated for 4-5 hours prior tissue isolation and imaging.
Fat body tissue was dissected into PBS from Drosophila larvae or pupae. The fat body tissue was either incubated with 10 μM tricarbonyl phenanthrolin (4-cyanophenyltretrazolato) Rhenium (I) in PBS for 15 minutes at room temperature, or LysoTracker® green (according to manufacturer instructions; Invitrogen, USA) and then mounted in carbomer-940 (Snowdrift farm, Tucson, USA) based optical coupling gel to prevent dehydration prior to imaging (Rothstein et al., 2006). For Oil Red O staining, fat body tissue was fixed in 4% (v/v) paraformaldehyde for 20 minutes, and incubated in 1/100 Oil Red 0 for 30 minutes and then washed in PBS before mounting in 80% glycerol.
A Ziess LSM710 META NLO confocal microscope (Zeiss, Germany), supplemented with a two-photon Mai-Tai® (tunable Ti:Sapphire femtosecond pulse laser, 710-920 nm, Spectra-Physics, Australia) was used for imaging. The images were acquired using a Plan-APOCHROMAT 63×/NA1.4 oil immersion objective. The Rhenium probe was excited at 830 nm using the two-photon pulse laser and detect at 600-654 nm. LysoTracker® green was imaged by excitation at 488 nm and detected at 497-558 nm. Atg8a-GFP was imaged with the Rhenium probe by excitation at 830 nm and resolved using spectral un-mixing using the Zen software package (based on spectral figure-printing of the two components). The Rhenium probe images and co-location analysis involved at least five separate images from five independent biological replicates, and one representative image from each treatment was selected for presentation (containing a minimum of 2 cells). For image quantification, two regions of interest (ROI) were selected at random with an area of 2500 μm^2 and the number of fluorescent puncta within the area counted, to give a minimum of 10 counts per treatment group. Comparison of means was performed by ANOVA with a Tukey post hoc tested in GraphPad Prism V.6.01 (USA).

| Compound | interaction with Cholestrol (dot blot) [1] | affinity towards cholesterol, in words [1] | interaction with Triglycerides (dot blot) [2] | interaction with triglycerides, in words [2] | interaction with GM1 (dot blot) [3] | affinity towards monosialotetrahexosylganglioside (GM1), in words [3] | interaction with PE (dot blot) [4] | affinity towards phosphatidylethanolamine (PE), in words [4] | interaction with Sphingosine (dot blot) [5] | affinity towards sphingosine, in words [5] | interaction with Sphingomyline (dot blot) [6] | affinity towards sphingomyelin, in words [6] | colocalisation of staining with Atg8a-GFP [7] |
| --- | --- | --- | --- | --- | --- | --- | --- | --- | --- | --- | --- | --- | --- |
| COC(=O)c1ccc(-c2nn[n]([Re](=[C]=O)(=[C]=O)=[C]=O)n2)cc1.c1cnc2c(c1)ccc1cccnc12 [PhenEster] | ✓ | varying affinity | ✓ | appeared to interact | ✓ | varying affinity | ✓ | varying affinity | ✓ | varying affinity | ✓ | varying affinity |  |
| Cc1ccc(C)c(N=Nc2cc(C)c(N=Nc3c(O)ccc4ccccc34)cc2C)c1 [oil red, reference compound] |  |  |  |  |  |  |  |  |  |  |  |  | did not appear to colocalise |
| facial-Tricarbonyl (η^1(N2)-5- cyanophen-4′-yl tetrazolato) η^2-2,2′- bipyridine Rhenium(I) [BiphenCyano] | ✓ | varying affinity | x |  | ✓ | varying affinity | ✓ | varying affinity | ✓ | varying affinity | ✓ | varying affinity |  |
| facial-Tricarbonyl (η^1(N2)-5-(methyl bcnzoate-4′-yl tetrazolato) η^2-2,2′- bipyridine Rhenium(I) [BiphenEster] |  | varying affinity | ✓ | appeared to interact | ✓ | varying affinity | ✓ | varying affinity |  | varying affinity | ✓ | varying affinity |  |
